tested on: recombinant NL4-3 virus (Renilla luciferase in nef, Gag P373S); assay: HIV cell culture assay (luciferase reporter virus in MT-2 cells); type: cell-based; conditions: NL43
Protocol: HIV cell culture assay—MT-2 cells and 293T cells were obtained from the NIH AIDS Research and Reference Reagent Program. MT-2 cells were propagated in RPMI 1640 media supplemented with 10% heat inactivated fetal bovine serum, […]. The 293T cells were propagated in DMEM media supplemented with 10% heat inactivated fetal bovine serum (FBS), 100 units/ml penicillin G and 100 μg/ml streptomycin. The proviral DNA clone of NL4-3 was obtained from the NIH AIDS Research and Reference Reagent Program. A recombinant NL4-3 virus, in which a section of the nef gene from NL4-3 was replaced with the Renilla luciferase gene, was used as a reference virus. In addition, residue Gag P373 was converted to P373S. Briefly, the recombinant virus was prepared by transfection of the altered proviral clone of NL4-3. Transfections were performed in 293T cells using LipofectAMINE PLUS from Invitrogen (Carlsbad, Calif.), according to manufacturer's instruction. The virus was titered in MT-2 cells using luciferase enzyme activity as a marker. Luciferase was quantitated using the Dual Luciferase kit from Promega (Madison, Wis.), with modifications to the manufacturer's protocol. The diluted Passive Lysis solution was pre-mixed with the re-suspended Luciferase Assay Reagent and the re-suspended Stop & Glo Substrate (2:1:1 ratio). Fifty (50) μL of the mixture was added to each aspirated well on assay plates and luciferase activity was measured immediately on a Wallac TriLux (Perkin-Elmer). Antiviral activities of inhibitors toward the recombinant virus were quantified by measuring luciferase activity in cells infected for 4-5 days with NLRluc recombinants in the presence serial dilutions of the inhibitor. Table 1 is the key for the data in Table 2.

Row | Compound | EC50 [µM]
1 | C=C(C)[C@@H]1CC[C@]2(CO)CC[C@]3(C)[C@H](CC[C@@H]4[C@@]5(C)CC=C(c6ccc(-c7nn[nH]n7)cc6)C(C)(C)[C@@H]5CC[C@]43C)[C@@H]12 [Example 5l, ((1R,3aS,5aR,5bR,7aR,11aS,11bR,13aR,13bR)-9-(4-(2H-tetrazol-5-yl)phenyl)-5a,5b,8,8,11a-pentamethyl-1-(prop-1-en-2-yl)-2,3,3a,4,5,5a,5b,6,7,7a,8,11,11a,11b,12,13,13a,13b-octadecahydro-1H-cyclopenta[a]chrysen-3a-yl)methanol] | > 1
2 | CC1(C)CC[C@]2(C(=O)O)CC[C@]3(C)C(=CC[C@@H]4[C@@]5(C)CC=C(c6ccc(C(=O)O)cc6)C(C)(C)[C@@H]5CC[C@]43C)[C@@H]2C1 [Example 13, (4aS,6aS,6bR,8aR,12aS,12bR,14bS)-10-(4-carboxyphenyl)-2,2,6a,6b,9,9,12a-heptamethyl-1,2,3,4,4a,5,6,6a,6b,7,8,8a,9,12,12a,12b,13,14b-octadecahydropicene-4-a-carboxylic acid] | < 1
3 | C=C(C)[C@@H]1CC[C@]2(C(=O)O)CC[C@]3(C)[C@H](CC[C@@H]4[C@@]5(C)CC=C(c6cccc(S(=O)(=O)NC)c6)C(C)(C)[C@@H]5CC[C@]43C)[C@@H]12 [Example 4e, (1R,3aS,5aR,5bR,7aR,11aS,11bR,13aR,13bR)-5a,5b,8,8,11a-pentamethyl-9-(3-(N-methylsulfamoyl)phenyl)-1-(prop-1-en-2-yl)-2,3,3a,4,5,5a,5b,6,7,7a,8,11,11a,11b,12,13,13a,13b-octadecahydro-1H-cyclopenta[a]chrysene-3a-carboxylic acid] | < 1
4 | CC(C)[C@@H]1CC[C@]2(CO)CC[C@]3(C)[C@H](CC[C@@H]4[C@@]5(C)CC=C(c6ccc(C(=O)O)cc6)C(C)(C)[C@@H]5CC[C@]43C)[C@@H]12 [Example 10, 4-((1S,3aS,5aR,5bR,7aR,11aS,11bR,13aR,13bR)-3a-(hydroxymethyl)-1-isopropyl-5a,5b,8,8,11a-pentamethyl-2,3,3a,4,5,5a,5b,6,7,7a,8,11,11a,11b,12,13,13a,13b-octadecahydro-1H-cyclopenta[a]chrysen-9-yl)benzoic acid] | < 1
5 | C=C(C)[C@@H]1CC[C@]2(C(=O)OC)CC[C@]3(C)[C@H](CC[C@@H]4[C@@]5(C)CC=C(c6cccc(C(=O)O)c6)C(C)(C)[C@@H]5CC[C@]43C)[C@@H]12 [Example 1a, 3-((1R,3aS,5aR,5bR,7aR,11aS,13aR,13bR)-3a-(methoxycarbonyl)-5a,5b,8,8,11a-pentamethyl-1-(prop-1-en-2-yl)-2,3,3a,4,5,5a,5b,6,7,7a,8,11,11a,11b,12,13,13a,13b-octadecahydro-1H-cyclopenta[a]chrysen-9-yl)benzoic acid] | > 1
6 | C=C(C)[C@@H]1CC[C@]2(C(=O)O)CC[C@]3(C)[C@H](CC[C@@H]4[C@@]5(C)CC=C(c6ccc(O)cc6)C(C)(C)[C@@H]5CC[C@]43C)[C@@H]12 [Example 4f, (1R,3aS,5aR,5bR,7aR,11aS,11bR,13aR,13bR)-9-(4-hydroxyphenyl)-5a,5b,8,8,11a-pentamethyl-1-(prop-1-en-2-yl)-2,3,3a,4,5,5a,5b,6,7,7a,8,11,11a, 11b,12,13,13a,13b-octadecahydro-1H-cyclopenta[a]chrysene-3a-carboxylic acid] | < 1
7 | C=C(C)[C@@H]1CC[C@]2(C(=O)OC)CC[C@]3(C)[C@H](CC[C@@H]4[C@@]5(C)CC=C(c6ccc(C(=O)O)cc6)C(C)(C)[C@@H]5CC[C@]43C)[C@@H]12 [Example 1b, 4-((1R,3aS,5aR,5bR,7aR,11aS,13aR,13bR)-3a-(methoxycarbonyl)-5a,5b,8,8,11a-pentamethyl-1-(prop-1-en-2-yl)-2,3,3a,4,5,5a,5b,6,7,7a,8,11,11a,11b,12,13,13a,13b-octadecahydro-1H-cyclopenta[a]chrysen-9-yl)benzoic acid] | < 1
8 | C=C(C)[C@@H]1CC[C@]2(C(=O)O)CC[C@]3(C)[C@H](CC[C@@H]4[C@@]5(C)CC=C(c6ccc(NC(=O)CCC(=O)O)cc6)C(C)(C)[C@@H]5CC[C@]43C)[C@@H]12 [Example 4b, (1R,3aS,5aR,5bR,7aR,11aS,11bR,13aR,13bR)-9-(4-(3-carboxypropanamido)phenyl)-5a,5b,8,8,11a-pentamethyl-1-(prop-1-en-2-yl)-2,3,3a,4,5,5a,5b,6,7,7a,8,11,11a,11b,12,13,13a,13b-octadecahydro-1H-cyclopenta[a]chrysene-3a-carboxylic acid] | > 1
9 | C=C(C)[C@@H]1CC[C@]2(C(=O)O)CC[C@]3(C)[C@H](CC[C@@H]4[C@@]5(C)CC=C(c6cccc(NS(C)(=O)=O)c6)C(C)(C)[C@@H]5CC[C@]43C)[C@@H]12 [Example 4g, (1R,3aS,5aR,5bR,7aR,11aS,11bR,13aR,13bR)-5a,5b,8,8,11a-pentamethyl-9-(3-(methylsulfonamido)phenyl)-1-(prop-1-en-2-yl)-2,3,3a,4,5,5a,5b,6,7,7a,8,11,11a,11b,12,13,13a,13b-octadecahydro-1H-cyclopenta[a]chrysene-3a-carboxylic acid] | > 1
10 | C=C(C)[C@@H]1CC[C@]2(C(=O)O)CC[C@]3(C)[C@H](CC[C@@H]4[C@@]5(C)CC=C(c6ccc(C(=O)O)c(F)c6)C(C)(C)[C@@H]5CC[C@]43C)[C@@H]12 [Example 4d, (1R,3aS,5aR,5bR,7aR,11aS,11bR,13aR,13bR)-9-(4-carboxy-3-fluorophenyl)-5a,5b,8,8,11a-pentamethyl-1-(prop-1-en-2-yl)-2,3,3a,4,5,5a,5b,6,7,7a,8,11,11a,11b,12,13,13a,13b-octadecahydro-1H-cyclopenta[a]chrysene-3a-carboxylic acid] | < 1
11 | C[C@H]1[C@H](C)CC[C@]2(C(=O)O)CC[C@]3(C)C(=CC[C@@H]4[C@@]5(C)CC=C(c6ccc(C(=O)O)cc6)C(C)(C)[C@@H]5CC[C@]43C)[C@H]12 [Example 12, (1S,2R,4aS,6aS,6bR,8aR,12aS,12bR,14bS)-10-(4-carboxyphenyl)-1,2,6a,6b,9,9,12a-heptamethyl-1,2,3,4,4a,5,6,6a,6b,7,8,8a,9,12,12a,12b,13,14b-octadecahydropicene-4-a-carboxylic acid] | < 1
12 | C=C(C)[C@@H]1CC[C@]2(CO)CC[C@]3(C)[C@H](CC[C@@H]4[C@@]5(C)CC=C(c6ccc(C(=O)O)c(F)c6)C(C)(C)[C@@H]5CC[C@]43C)[C@@H]12 [Example 5m, 2-fluoro-4-((1R,3aS,5aR,5bR,7aR,11aS,11bR,13aR,13bR)-3a-(hydroxymethyl)-5a,5b,8,8,11a-pentamethyl-1-(prop-1-en-2-yl)-2,3,3a,4,5,5a,5b,6,7,7a,8,11,11a,11b,12,13,13a,13b-octadecahydro-1H-cyclopenta[a]chrysen-9-yl)benzoic acid] | < 1
13 | C=C(C)[C@@H]1CC[C@]2(CO)CC[C@]3(C)[C@H](CC[C@@H]4[C@@]5(C)CC=C(c6cc(C(=O)O)[nH]n6)C(C)(C)[C@@H]5CC[C@]43C)[C@@H]12 [Example 8, 3-((1R,3aS,5aR,5bR,7aR,11aS,11bR,13aR,13bR)-3a-(hydroxymethyl)-5a,5b,8,8,11a-pentamethyl-1-(prop-1-en-2-yl)-2,3,3a,4,5,5a,5b,6,7,7a,8,11,11a,11b,12,13,13a,13b-octadecahydro-1H-cyclopenta[a]chrysen-9-yl)-1H-pyrazole-5-carboxylic acid] | < 1
14 | C=C(C)[C@@H]1CC[C@]2(CO)CC[C@]3(C)[C@H](CC[C@@H]4[C@@]5(C)CC=C(c6ccc(C(=O)O)c(C(=O)O)c6)C(C)(C)[C@@H]5CC[C@]43C)[C@@H]12 [Example 5t, 4-((1R,3aS,5aR,5bR,7aR,11aS,11bR,13aR,13bR)-3a-(hydroxymethyl)-5a,5b,8,8,11a-pentamethyl-1-(prop-1-en-2-yl)-2,3,3a,4,5,5a,5b,6,7,7a,8,11,11a,11b,12,13,13a,13b-octadecahydro-1H-cyclopenta[a]chrysen-9-yl)phthalic acid] | < 1
15 | C=C(C)[C@@H]1CC[C@]2(CO)CC[C@]3(C)[C@H](CC[C@@H]4[C@@]5(C)CC=C(c6ccc(C(=O)O)c(O)c6)C(C)(C)[C@@H]5CC[C@]43C)[C@@H]12 [Example 5p, 2-hydroxy-4-((1R,3aS,5aR,5bR,7aR,11aS,11bR,13aR,13bR)-3a-(hydroxymethyl)-5a,5b,8,8,11a-pentamethyl-1-(prop-1-en-2-yl)-2,3,3a,4,5,5a,5b,6,7,7a,8,11,11a,11b,12,13,13a,13b-octadecahydro-1H-cyclopenta[a]chrysen-9-yl)benzoic acid] | < 1
16 | C=C(C)[C@@H]1CC[C@]2(CO)CC[C@]3(C)[C@H](CC[C@@H]4[C@@]5(C)CC=C(c6ccc(O)cc6C)C(C)(C)[C@@H]5CC[C@]43C)[C@@H]12 [Example 5h, 4-((1R,3aS,5aR,5bR,7aR,11aS,11bR,13aR,13bR)-3a-(hydroxymethyl)-5a,5b,8,8,11a-pentamethyl-1-(prop-1-en-2-yl)-2,3,3a,4,5,5a,5b,6,7,7a,8,11,11a,11b,12,13,13a,13b-octadecahydro-1H-cyclopenta[a]chrysen-9-yl)-3-methylphenol] | > 1
